Data reported in EP2729445B1, “CYCLIC AMINE DERIVATIVES AS EP4 RECEPTOR ANTAGONISTS” (Rottapharm Biotech S.r.l., priority 2011, dated 2013).

Tests used:
[1] = Pharmacokinetics after intravenous and oral treatment, plasma LC-MS/MS; format: in vivo, male Han Wistar rats; details: rat, 1 mg/kg; for AUC(0-inf): extrapolated to infinity
Experimental: The pharmacokinetics of compounds E7, E17 and E18, were studied in male Han Wistar rats. The rats were treated intravenously and orally (n=3 for each dose route) with compounds formulated as solutions. The rats were fitted with a jugular cannula for serial sampling. A full profile was acquired from each rat. Plasma extracts were quantitatively analyzed using a specific and sensitive LC-MS/MS bioanalytical method. Inter-individual variations between the three rats in each group were limited (CV for pharmacokinetic parameters was below 50%). […] A range of clearance values were obtained for the different structure, ranging from low to moderate values (from 43 to 250 ml/h). After oral administration, absorption was quite fast with a clear maximum concentration reached by the first sampling time-point of 15 minutes for all compounds.

hEP4 receptors [2] = molecular target: T1, hEP4 receptors (Homo sapiens, UniProt P35408); experiment: [3H]-Prostaglandin E2 membrane binding assay; details: read-out: Binding pKi (converted)
T1 construct: membrane fraction used
Experimental: (§1) The cDNA clone of human EP4 receptor (NM_000958.2) was obtained from InvitrogenTM: Ultimate™ ORF Clone Collection - Clone ID IOH46525. The coding sequence was subcloned in expression vector pcDNATM6.2/V5-DEST by Gateway technology (InvitrogenTM). Human embryonic kidney cells (HEK-293) were stably transfected with expression vector for human EP4 receptor in according to the method described in FuGENE®6 Transfection Reagent's manual (Roche Applied Science®).
(§2) The EP4 transfected cells were grown in Dulbecco's modified Eagle's medium containing 10% fetal bovine serum and 10 µg/ml Blasticidin S HCl (selection medium) at 37°C in a humidified atmosphere of 5% CO2 in air. For the membrane preparation, cells in flask were harvested by hypotonical/mechanical lysis with chilled (4°C) TE buffer (5mM TRIS, 5mM ethylenediamine tetra-acetic acid (EDTA), pH 7.4). Cells were detached and lysed with 10ml of hypotonic lysis buffer and by scraping. The cell lysate was vortexed for 30 sec and centrifuged at 40000x g at 4°C for 22min.
The membrane pellet was resuspended in the same buffer (5mM TRIS, 5mM ethylenediamine tetra-acetic acid (EDTA), pH 7.4), and protein concentration was determined by Bradford method (Bio-Bad® assay). This membrane preparation was stored at -80°C freezer until use for binding assay. ([^3H]-PGE2) membranes binding assays toward hEP4 receptors (human EP4/HEK293 transfectant, see above) and hEP2 receptors (human EP2/HEK293 transfectant, purchased from PerkinElmer Inc) were performed in 10 mM MES-KOH buffer pH6, containing 10 mM MgCl2 and 1 mM CaCl2 for EP4 binding assay or 50 mM Tris-Cl, BSA 0.5% for EP2 binding assay (according to supplier indication) . Ten microgram of protein from membrane fractions were incubated in a total volume of 0.1ml (EP4) or 0.2ml (EP2) with 1nM (EP4) or 3nM (EP2) [^3H]-PGE2 (PerkinElmer Inc, 171Ci/mmol). In both assays to determine the total binding or non specific binding, 1% DMSO or 1µM prostaglandin E2 (EP4) or 100 µM (EP2) were added to reaction mixtures, respectively. Incubation was conducted in a polypropylene 96 multiwell for 90 min (EP4) or 60 min (EP2) at room temperature prior to separation of the bound and free radioligand by vacuum manifold rapid filtration on glass fiber filters (Unifilter GFB96, PerkinElmer Inc) pre-soaked in 0.3% polyethyleneimine. Filters were washed with ice cold buffer pH 7.4 (50mM HEPES, NaCl 500mM, BSA 0.1% for EP4 binding assay or 50mM Tris-Cl for EP2 binding assays) and the residual [^3H]-PGE2 binding determined by solid scintillation counter (TopCount , PerkinElmer Inc).
The affinity (Ki) of each compound was calculated according to the Cheng-Prousoff equation: Ki = IC50/(1+([C]/Kd)). Results were expressed as pKi (- log10 Ki (M)

hEP4 receptors [3] = molecular target: T1, hEP4 receptors; experiment: cAMP assay (AlphaScreen) on human EP4 membrane of transfected cells, antagonism of PGE2; format: biochemical; details: HEK293 cell membrane stimulated with PGE2 3nM; read-out: functional IC50
Experimental: as §1, §2
The assay is based on the competition between endogenous cAMP and exogenously added biotinylated cAMP. The capture of cAMP is achieved by using a specific antibody conjugated to Donor beads. Cell membranes prepared as described above, were resuspended in 1 ml stimulation buffer (HBSS 1X + BSA 0.1% + IBMX 0.5mM + HEPES 5mM + MgCl2 10mM + GTP 1 nM + GDP 10µM + ATP 100µM - pH 7.4). Cell membranes were dispensed into white 384-well microplates at final concentration of 1µg/well and used for the determination of cAMP with the alphascreen cAMP functional assay (EnVision - PerkinElmer). Cell membrane/anti-cAMP Acceptor beads mix (5 µl) and a mixture of analysed compounds (dissolved in 100% DMSO to a final maximal concentration of 0.01% DMSO)/PGE2 (5 µl) were incubated at room temperature (22-23°C) for 30 min in the dark. The Biotinylated-cAMP and donor beads (15 µl) were dispensed into each well to start the competition reaction. After 1 h incubation RT (22-23°C) in the dark the plate was read using EnVision platform to determine the cAMP level (excitation: 680nm; emission:520,620nm). In each experiment:
cAMP standard curve (concentration range from 1x10-6 to 1x10-11 M in log intervals) with a negative control (no cAMP)
a positive control: forskolin 10µM
Antagonism studies were performed stimulating HEK293 cell membrane with PGE2 3nM. The AlphaScreen signal is plotted as a function of log concentration of cAMP and functional IC50 is determined. IC50 value is calculated by linear regression.

T1 sequence (P35408 whole entry): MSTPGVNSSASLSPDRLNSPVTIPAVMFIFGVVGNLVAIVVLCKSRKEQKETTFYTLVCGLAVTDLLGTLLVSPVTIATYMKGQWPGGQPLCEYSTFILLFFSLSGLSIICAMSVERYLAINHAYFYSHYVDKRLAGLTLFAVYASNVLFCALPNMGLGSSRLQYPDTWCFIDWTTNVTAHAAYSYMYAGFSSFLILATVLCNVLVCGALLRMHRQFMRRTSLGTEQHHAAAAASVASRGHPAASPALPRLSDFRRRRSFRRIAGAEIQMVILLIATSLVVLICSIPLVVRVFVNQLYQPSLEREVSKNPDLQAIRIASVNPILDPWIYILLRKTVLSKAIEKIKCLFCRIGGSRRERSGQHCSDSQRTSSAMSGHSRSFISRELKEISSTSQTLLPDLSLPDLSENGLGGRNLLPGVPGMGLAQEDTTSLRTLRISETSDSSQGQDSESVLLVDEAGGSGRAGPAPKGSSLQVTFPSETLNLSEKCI

AUC(0-t) ([1]; male, Han Wistar, plasma, iv): 0.966 µg·h/mL
AUC(0-inf) ([1]; male, Han Wistar, plasma, iv): 1.04 µg·h/mL
half-life ([1]; male, Han Wistar, plasma, iv, extrapolated, indicative only): 7.3 h
clearance ([1]; male, Han Wistar, plasma, iv, extrapolated, indicative only, read-out: CLp* (converted)): 4.22 mL/min
Vd ([1]; male, Han Wistar, plasma, iv, extrapolated, indicative only, read-out: Vss*): 1.79 L
AUC(0-t) ([1]; male, Han Wistar, plasma, po): 0.823 µg·h/mL
Cmax ([1]; male, Han Wistar, plasma, po): 0.318 µg/mL
Tmax ([1]; male, Han Wistar, plasma, po): 0.5 h
AUC(0-inf) ([1]; male, Han Wistar, plasma, po): 1.08 µg·h/mL
half-life ([1]; male, Han Wistar, plasma, po, extrapolated, indicative only): 14.1 h
bioavailability ([1]; male, Han Wistar, plasma, po): 85%
Tlast ([1]; po): 24 h
Ki (hEP4 receptors [2]): 0.0126 µM
IC50 (hEP4 receptors [3]): 0.028 µM
SMILES: O=C(O)c1ccc(C2(NC(=O)[C@H]3CC(F)(F)CCN3Cc3ccc(C(F)(F)F)cc3)CC2)cc1 [Example E17, (R)-4-(1-(4,4-difluoro-1-(4-(trifluoromethyl)benzyl)piperidine-2-carboxamido)cyclopropyl)benzoic acid]
